# Tests used:
# [1] = Protocol: The stock solution of HPic and H2Dpic was prepared by dissolving in demineralized water (c(ligand) = 0.02 M). The gallium(III) ion solution was prepared from anhydrous gallium(III) nitrate (c(Ga^3+) = 0.05 M) and was standardized by back titration of excess of EDTA with zinc(II). Decarbonated potassium hydroxide solution (approx. 0.2 M) was used as a titrant that was standardized by potassium hydrogen phthalate (c(KHP) = 0.1 M). Standard inert electrolyte of nitric acid was used in all titrations (c(HNO3) = 0.03 M, I(HNO3/KNO3) = 0.1 M). Potentiometric measurements were carried out using a TitroLine 7000 dosage system with a BlueLine combination electrode (SI Analytics) in a glass vessel (5 mL) thermostated at 25 ± 0.1 °C at an ionic strength I(KNO3) = 0.1 M. Inert atmosphere was ensured by a constant flow of a nitrogen gas. Precise calibration of the electrode was carried out by the titration of 0.03 M HNO3 with 0.2 M KOH in the range –log[H^+] = 1.8–12.0, with the pH-meter yielding E values. The relation between E and –log[H^+] is expressed by Eq. (1) where the term E^0 contains the standard potentials of the electrode and the contribution of inert ions to the liquid-junction potential. The value S corresponds to the Nernstian slope, the value of which should be close to the theoretical value, and j1[H^+] and j2[OH^–] = j2Kw/[H^+] are contributions of the H^+ and OH^– ions, respectively, to the liquid-junction potential. The pKw value was 13.78 in Eq. (1).1 E=E^0-S-logH^++j1H^++j2Kw/H^+
# The parameters j1 and j2 cause deviation from linear dependence between E and –log[H^+] only in strongly acidic and strongly alkaline solutions. The picolinic and dipicolinic acid protonation constants were determined with ligand concentration 0.004 M. The stability constants in the Ga-HPic and Ga-H2Dpic binary system were determined by the ligand concentrations 0.004 and the Ga^3+ concentration was 0.004, 0.002 and 0.001 M in dependence on the ligand to metal ratio.
# The protonation constants β110, β210 are the concentration constants and are defined by β110 = [HL]/ [H][L], β210 = [H2L]/ [H]^2[L] (pK2 = logβ110, pK1 = logβ210- logβ110); the stability constants are defined by βrqp = [HrLqMp]/[H]^r[L]^q[M]^p. The equilibrium constants were obtained by fitting the titration data with OPIUM [23]. The following hydrolysis constants were used for the calculations: βpr = [Mp(OH)r^3−r][H]^r/[M]^p; log β11 = − 2.74; log β12 = − 7.0; log β13 = − 11.96; log β14 = − 15.52 [24].
# [2] = tested on: Staphylococcus aureus (S. aureus) CCM 3953; assay: Antimicrobial activity, macrodilution method (growth by A590); type: cell-based; details: Staphylococcus aureus, CCM3953; positive control; read-out: MIC100 for S. aureus
# Protocol: (§1) The antimicrobial activities of gallium(III) complexes GaPic, GaDpic, GaChel, GaCldpic, free ligands (HPic, H2Dpic, H2Chel, H2Cldpic) and positive controls (cefoxitin (C), ampicillin (A) and piperacillin (P)) were evaluated by macrodilution method using G^+ bacteria (Firmicutes) Staphylococcus aureus (S. aureus) CCM 3953 (Czech Collection of Microorganisms), G^− bacteria (γ-proteobacteria) Escherichia coli (E. coli) CCM 3988, Pseudomonas aeruginosa (P. aeruginosa) CCM 1959 (Czech Collection of Microorganisms) and the yeast Candida parapsilosis (C. parapsilosis) ATCC 22019 (American type culture collection). Cultures of bacteria (in Mueller–Hinton broth, MHB) and yeasts (in Sabouraud’s growth medium, SB) were incubated under shaking (250 rpm) at 37 °C. The growth of bacteria and yeasts was evaluated by measuring the absorbance of the growing cultures (A590) until the cultures reached the stationary growth phase. The effects of gallium(III) complexes on the growth of filamentous fungi Rhizopus oryzae (R. oryzae) CCM F-8284, Alternaria alternata (A. alternata) CCM F-128 and Microsporum gypseum (M. gypseum) CCM F-8342 (Czech Collection of Microorganisms) were observed by macrodilution method on solidified potato-dextrose growth medium (PDA). During culturing, the diameters of growing fungal colonies were measured at regular intervals. Briefly, the antimicrobial activity (bacteria and yeasts) gallium(III) complexes/ ligands were added to the microbial culture at the beginning of the cultivation-to the lag phase. Pure gallium(III) complexes/ligands were dissolved in DMSO. The final concentration of DMSO never exceeded 1.0 vol. % neither in control nor treated samples. Concentration of gallium(III) complexes used in experimental work for evaluation of antimicrobial activity was used in the range of 0.05–2 mM, for the free ligands in the range of 0.5–2.0 mM in all experiments. […] The IC50 values were evaluated from toxicity curves. All the obtained results of antimicrobial activity were compared to the activity of Ga(NO3)3.
# [3] = tested on: A2058 (human metastatic melanoma); assay: MTS antiproliferative assay; details: read-out: Cytotoxic activity IC50 A2058; MTS, 72 h of incubation
# Protocol: (§2) Cell culture the cell lines A2058 (human metastatic melanoma), BLM (human metastatic melanoma), HCT116 (human colorectal carcinoma), HeLa (human cervical adenocarcinoma), Jurkat (human leukaemic T cell lymphoma). […] Cells were maintained in standard conditions with an atmosphere containing 5% CO2 at 37 °C.
# (§3) The antiproliferative activity of Ga(III) complexes GaPic, GaDpic, GaChel, GaCldpic, free ligands (HPic, H2Dpic, H2Chel, H2Cldpic) and cisplatin (cisPt) were evaluated by colorimetric microculture MTS (3-(4,5-dimethylthiazol-2-yl)-5-(3-carboxymethoxyphenyl)-2-(4-sulfophenyl)-2H tetrazolium) assay (Promega, Madison, WI, USA). Cancer and non-cancer cells were seeded at density 5 × 10^3 cells/well in 96-well polystyrene microplates. Twenty-four hours after cell seeding, different concentrations (1.0—100.0 µM) of the compounds were tested. After 72 h of incubation, 10 µL of MTS was added to each well. After an additional 2 h, cell proliferation was evaluated by measuring of absorbance at wavelength 490 nm using the automated Cytation™ 3 Cell Imaging Multi-Mode Reader (Biotek, Winooski, VT, USA). The absorbance of control wells was taken as 100%, and the results were expressed as a percent of untreated control. IC50 values were calculated from MTS analyses.
# [4] = tested on: HCT116 (human colorectal carcinoma); assay: MTS antiproliferative assay; details: read-out: Cytotoxic activity IC50 HCT116; MTS, 72 h of incubation
# Protocol: as §2, §3
# [5] = tested on: HeLa (human cervical adenocarcinoma); assay: MTS antiproliferative assay; details: read-out: Cytotoxic activity IC50 HeLa; MTS, 72 h of incubation
# Protocol: as §2, §3
# [6] = tested on: Jurkat (human leukaemic T cell lymphoma); assay: MTS antiproliferative assay; details: read-out: Cytotoxic activity IC50 Jurkat; MTS, 72 h of incubation
# Protocol: as §2, §3
# [7] = tested on: MDA-MB-231 (human mammary gland adenocarcinoma); assay: MTS antiproliferative assay; details: read-out: Cytotoxic activity IC50 MDA-MB-231; MTS, 72 h of incubation
# Protocol: as §2, §3
# [8] = tested on: PaTu 8902 (human pancreatic adenocarcinoma); assay: MTS antiproliferative assay; details: read-out: Cytotoxic activity IC50 PaTu 8902; MTS, 72 h of incubation
# Protocol: as §2, §3
# [9] = tested on: human dermal fibroblasts (HDF); assay: MTS antiproliferative assay (non-cancer cells); details: read-out: Cytotoxic activity IC50 HDF; MTS, 72 h of incubation
# Protocol: as §2, §3
# [10] = tested on: Pseudomonas aeruginosa (P. aeruginosa) CCM 1959; assay: Antimicrobial activity, macrodilution method (growth by A590); type: cell-based; details: Pseudomonas aeruginosa, CCM1959; positive control; read-out: MIC100 for P. aeruginosa
# Protocol: as §1
smiles,measurement,setting,value
O=C([O-])c1ccccn1.O=C([O-])c1ccccn1.[Ga+3] [[Ga(Pic)2]^+],stability constant logβ021,[1],16.23(6)
O=C([O-])c1ccccn1.O=C([O-])c1ccccn1.O=C([O-])c1ccccn1.[Ga+3] [[Ga(Pic)3]],stability constant logβ031,[1],20.86(2)
CO[C@@]1(NC(=O)Cc2cccs2)C(=O)N2C(C(=O)O)=C(COC(N)=O)CS[C@@H]21 [cefoxitin],MIC,[2],0.74 µM
"N.N.[Cl][Pt][Cl] [cisPt, cisplatin]",IC50,[3],17.6 ± 1.2 µM
same,IC50,[4],7.4 ± 0.8 µM
same,IC50,[5],35.4 ± 3.4 µM
same,IC50,[6],6.3 ± 0.5 µM
same,IC50,[7],7.1 ± 0.3 µM
same,IC50,[8],12.9 ± 0.9 µM
same,IC50,[9],40.1 ± 2.8 µM
CCN1CCN(C(=O)N[C@@H](C(=O)N[C@@H]2C(=O)N3[C@@H]2SC(C)(C)[C@@H]3C(=O)O)c2ccccc2)C(=O)C1=O [piperacillin],MIC,[10],5.81 µM
